Test results published in paper PMC12345401, “The mRNA Translation Inhibitor Vioprolide A Prevents Inflammatory Pain‐Like Behaviour With Limited Action on Already Established Pain‐Like Behaviour in Mice” (European Journal of Pain (London, England), 2025).
Entries after “also recorded” stand apart in the source; their conditions may differ.

How the values were obtained:
C57BL/6N mice [1] = test: CFA-induced paw inflammation, mechanical hypersensitivity; format: in vivo, mouse
Experimental: (§1) Paw withdrawal latencies following mechanical stimulation were assessed using a dynamic plantar aesthesiometer (Ugo Basile, Gemonio, Italy), which compresses a stainless‐steel probe (0.5‐mm diameter) against the plantar surface of the hindpaw through a wire mesh bottom on which the mice are placed. The applied force was increased from 0 to 5 g over a period of 10 s (0.5 g/s ramp) and then remained constant at 5 g for an additional 10 s (total cutoff time, 20 s). An unequivocal paw withdrawal was evaluated as a response. The paw withdrawal latency was calculated as the average of three to four consecutive exposures with at least 20 s in between. The area under the curve was calculated using Prism 10 (Graph Pad) software.
Paw inflammation was induced by injecting 20 μL of complete Freund's adjuvant (CFA; containing 1 mg/mL heat‐killed Mycobacterium tuberculosis in paraffin oil 85% and mannide monooleate 15%; Sigma‐Aldrich, St. Louis, USA) into the plantar side of a hindpaw (Petersen et al. [2019]). Vioprolide A (0.3, 1 or 3 mg/kg), diclofenac (50 mg/kg; Sigma‐Aldrich, St. Louis, USA), or vehicle (1% DMSO in 0.9% NaCl) was i.p. administered in a volume of 100 μL 24 h after the intraplantar CFA injection. Paw withdrawal latencies following mechanical stimulation were assessed using a dynamic plantar aesthesiometer as described above.

mice = settings: cited from earlier work; for cytokines (interleukin-1β, interleukin-6, tumour necrosis factor) in peritoneal lavage after zymosan-induced peritonitis: Stark et al. [2019]
C57BL/6N mice [2] = test system: C57BL/6N mice; set-up: method as in Metzner et al. [2021]; settings: positive control in a previous study; ref Metzner et al. [2021]; cited from earlier work
rodents = test system: rodents; set-up: method as in earlier work; settings: local treatment, ref Geranton et al. [2009], Jimenez-Diaz et al. [2008], Price et al. [2007]; cited from earlier work
C57BL/6N mice [3] = test: Zymosan-induced peritonitis, dynamic weight bearing; format: in vivo, mouse; settings: 0.3 mg/kg s.c. into the neck 16 h prior to i.p. zymosan; DWB 5 h after zymosan; vs vehicle
Experimental: Acute peritonitis was induced by a single intraperitoneal (i.p.) injection (0.5 mL) of a zymosan A suspension (2 mg/mL in phosphate‐buffered saline (PBS) without Ca^2+/Mg^2+; Sigma‐Aldrich, Steinheim, Germany and Gibco, Darmstadt, Germany) as described (Stark et al. [2019]). Vioprolide A (0.3 mg/kg; kindly provided by the group of Prof. Rolf Müller, Helmholtz Institute for Pharmaceutical Research Saarland (HIPS), Helmholtz Center for Infection Research and Department of Pharmacy, Saarland University, Saarbrücken, Germany) or vehicle (1% DMSO in 0.9% NaCl) was subcutaneously (s.c.) injected into the neck (to prevent direct interaction with the i.p. applied zymosan) in a volume of 100 μL 16 h prior to the zymosan injection. An automated dynamic weight bearing (DWB) device (Bioseb, Boulogne, France) was used to assess the pain‐like behaviour during zymosan‐induced peritonitis. […] The recorded weight distribution was analysed using the DWB software as described (Laux‐Biehlmann et al. [2016]; Stark et al. [2019]). A zone was considered valid when the following parameters were detected: ≥ 0.8 g on one captor with a minimum of two adjacent captors recording ≥ 1.0 g. A time segment was considered valid if ≥ 3 stable pictures were detected (Laux‐Biehlmann et al. [2016]; Stark et al. [2019]). […]

C57BL/6N mice [4] = test: Zymosan-induced paw inflammation, mechanical hypersensitivity (dynamic plantar aesthesiometer); format: in vivo, mouse; settings: 0.3, 1 and 3 mg/kg s.c. 16 h prior to intraplantar zymosan; 1-72 h post-zymosan; vs vehicle
Experimental: (§2) Paw inflammation was induced by injecting 20 μL of a zymosan A suspension (5 mg/mL in PBS without Ca^2+/Mg^2+, pH 7.4; Sigma‐Aldrich, St. Louis, USA) into the plantar side of a hindpaw (Petersen et al. [2019]). Vioprolide A (0.3, 1 or 3 mg/kg) or vehicle (1% DMSO in 0.9% NaCl) was s.c. administered into the neck in a volume of 100 μL 16 h prior to the intraplantar zymosan injection.
as §1

C57BL/6N mice [5] = test: Zymosan-induced paw oedema (plethysmometer); format: in vivo, mouse; settings: 0.3, 1 and 3 mg/kg s.c. 16 h prior to intraplantar zymosan; vs vehicle
Experimental: as §2
The volume of the hindpaw was measured using a plethysmometer (Ugo Basile, Gemonio, Italy) according to the manufacturer's instructions. The dipping solution contained 0.8–0.9 g/L NaCl in distilled water and 2–3 mL/L wetting compound (Ugo Basile, Gemonio, Italy) to reduce drop and meniscus build‐up. The paw volume was calculated as a mean of three measurements. The area under the curve was calculated using Prism 10 (Graph Pad) software.

C57BL/6N mice [6] = test: Spared nerve injury (SNI)-induced neuropathy, mechanical hypersensitivity; format: in vivo, mouse; settings: 0.3 mg/kg i.p. on Day 14 after SNI; observed over 48 h
Experimental: as §1
The SNI model was performed as described previously (Bourquin et al. [2006]; Petersen et al. [2019]). Briefly, under isoflurane anaesthesia the tibial and common peroneal branches of the sciatic nerve were ligated and dissected distally. The sural nerve remained intact and the mice developed hypersensitivity in the lateral area of the hindpaw. Vioprolide A (0.3 mg/kg) or vehicle (1% DMSO in 0.9% NaCl) were i.p. administered in a volume of 100 μL 14 days after SNI. Paw withdrawal latencies following mechanical stimulation were assessed using a dynamic plantar aesthesiometer as described above.

C57BL/6N mice [7] = test: Accelerating rotarod test; format: in vivo, mouse; settings: 3 mg/kg s.c. into the neck; naive mice; 20 and 44 h after administration
Experimental: (§3) For the accelerating rotarod test, mice were placed on a rotarod treadmill (Ugo Basile, Gemonio, Italy) at increasing speed (4–40 rpm over 300 s; cutoff time 300 s) and trained for several consecutive days. Only mice that reached 300 s without falling off during the training sessions were included in the experiment. In the vertical pole test, mice were placed with the head pointing upward on a vertical pole and the time needed to reach the ground was recorded (cutoff time 20 s). After baseline measurements, vioprolide A (3 mg/kg) or vehicle (1% DMSO in 0.9% NaCl) was s.c. administered into the neck and the accelerating rotarod test immediately followed by the vertical pole test was performed 20 and 44 h after drug administration. Three trials per mouse were used for evaluation (Balzulat et al. [2024]).

C57BL/6N mice [8] = test: Vertical pole test; format: in vivo, mouse; settings: 3 mg/kg s.c. into the neck; naive mice; 20 and 44 h after administration
Experimental: as §3

C57BL/6N mice [9] = test: Von Frey filament test in naive mice; format: in vivo, mouse; settings: 3 mg/kg s.c. into the neck, 22 and 46 h after administration
Experimental: Immediately after the vertical pole test, mice were placed on a wire‐mesh platform in Plexiglas cylinders and habituated for approximately 1 h. Von Frey filaments ranging from 0.04 to 4 g (Ugo Basile, Gemonio, Italy) were applied to the plantar surface of a hind paw for 1 s with a force causing the filament to bend. Starting with the lowest force, each filament was applied 10 times with a break of at least 2 min. The number of paw withdrawal reactions per 10 applications was used to calculate the withdrawal frequency (Beaulieu‐Laroche et al. [2020]). Measurements were performed at baseline and 22 and 46 h after vioprolide A or vehicle administration.

[10] = Pharmacokinetic profile, plasma (LC-MS); format: in vivo; settings: 0.3 mg/kg i.p.
Experimental: (§4) The pharmacokinetic profile of vioprolide A was determined by staff of Pharmacelsus (Saarbrücken, Germany) in male C57BL/6 mice as described (Balzulat et al. [2024]). A single dose of 0.3 mg/kg vioprolide A (in NaCl 0.9% + 1% DMSO) was i.p. administered, and two blood samples were obtained from each animal retrobulbarly under short isoflurane anaesthesia (at 0.25 and 0.5 h from 3 mice; at 1 and 2 h from 3 mice; and at 4 and 8 h from 3 mice). Immediately after the last blood sample was taken, the animal was euthanised by cervical dislocation, and the brain was collected. Plasma and brain concentrations of vioprolide A were determined by LC–MS analysis. The pharmacokinetic analysis was performed applying a non‐compartment model using the Kinetica 5.0 software (Thermo Scientific, Waltham, USA). All given parameters were obtained by trapezoid area calculation.

[11] = Pharmacokinetic profile, brain levels (LC-MS); format: in vivo; settings: 0.3 mg/kg i.p., mouse brain, over 8 h
Experimental: as §4

[12] = male, C57BL/6, ip, mouse plasma

## O=C(O)Cc1ccccc1Nc1c(Cl)cccc1Cl [diclofenac, reference compound]
C57BL/6N mice [1]; 50 mg/kg i.p. 24 h after intraplantar CFA, positive control, statistical significance not reached
  CFA-induced mechanical hypersensitivity (paw withdrawal latency): visibly attenuated

## COC(=O)C[C@](O)(CCCC(C)(C)O)C(=O)O[C@@H]1C(OC)=C[C@]23CCCN2CCc2cc4c(cc2[C@H]13)OCO4 [homoharringtonine]
mice; ref Burgers et al. [2024]
  cytokines (interleukin-1β, interleukin-6, tumour necrosis factor) in peritoneal lavage after zymosan-induced peritonitis: reduced the amount of cytokines
  pain behaviour during zymosan-induced peritonitis: ameliorated the pain behaviour

## O=C1N[C@@H]2C(=C[C@H](O)[C@@H](O)[C@H]2O)c2cc3c(c(O)c21)OCO3 [narciclasine]
mice; ref Burgers et al. [2024]
  cytokines (interleukin-1β, interleukin-6, tumour necrosis factor) in peritoneal lavage after zymosan-induced peritonitis: reduced the amount of cytokines
mice; ref Stark et al. [2019]
  visceral pain behaviour in murine peritonitis model: significantly inhibited visceral pain behaviour

## CC(C)C[C@H](CN)CC(=O)O [pregabalin]
C57BL/6N mice [2]
  neuropathic pain behaviour in SNI model: attenuated the neuropathic pain behaviour

## CO[C@H]1C[C@@H]2CC[C@@H](C)[C@@](O)(O2)C(=O)C(=O)N2CCCC[C@H]2C(=O)O[C@H]([C@H](C)C[C@@H]2CC[C@@H](O)[C@H](OC)C2)CC(=O)[C@H](C)/C=C(\C)[C@@H](O)[C@@H](OC)C(=O)[C@H](C)C[C@H](C)/C=C/C=C/C=C/1C [rapamycin]
rodents
  persistent pain-like behaviour: attenuated persistent pain‐like behaviour

## C/C=C1/NC(=O)[C@@H]2CSC(=N2)[C@@H]2C[C@@H](C)N2C(=O)[C@@H](CC(C)C)NC(=O)[C@H](C)NC(=O)[C@@H](O)COC(=O)[C@H](C(C)C)N(C)C(=O)[C@H]([C@@H](C)O)NC(=O)[C@@H]2CCCCN2C1=O [vioprolide A]
C57BL/6N mice [3]
  zymosan-induced weight shift towards the frontpaws (visceral nociceptive behaviour): significantly ameliorated; also recorded: significantly lower
C57BL/6N mice [4]
  zymosan-induced mechanical hypersensitivity (paw withdrawal latency, time course and AUC): significantly ameliorated; also recorded: significantly reduced
C57BL/6N mice [5]
  zymosan-induced paw edema (paw volume, time course and AUC): decreased in a dose‐dependent manner; also recorded: significantly reduced
C57BL/6N mice [1]; 0.3, 1 and 3 mg/kg i.p. 24 h after intraplantar CFA, observed over 24 h
  CFA-induced mechanical hypersensitivity (paw withdrawal latency): failed to affect the mechanical hypersensitivity; also recorded: none of the applied doses of vioprolide A affected
C57BL/6N mice [6]
  SNI-induced mechanical hypersensitivity (paw withdrawal latency): did not affect; also recorded: failed to affect the mechanical hypersensitivity
C57BL/6N mice [7]
  motor function, time on accelerating rotarod: did not affect the time spent on the rotarod; also recorded: did not impair motor function
C57BL/6N mice [8]
  motor function, vertical pole test: did not affect; also recorded: did not impair motor function
C57BL/6N mice [9]
  mechanical sensitivity, paw withdrawals to von Frey filaments: did not alter mechanical sensitivity
[10]; mouse plasma
  %AUCextra (extrapolated part of AUC0-inf): 3.9%
  t 1/2z (half-life of the terminal slope): 1.0 h
  t z (time of the last quantifiable sample): 4.0 h
[10]; male, C57BL/6, intraperitoneal, mouse plasma, read-out: C z (last analytically quantifiable concentration)
  concentration at 4 h: 0.1 ng/mL
[10]; [12]
  AUC(0-t): 3.6 ng·h/mL
  Cmax: 7.8 ng/mL
  Tmax: 0.25 h
[10]; male, C57BL/6, ip, mouse plasma, extrapolated to infinity
  AUC(0-inf): 3.8 ng·h/mL
[10]; male, C57BL/6, ip, mouse plasma, read-out: CL/f (total body clearance after extravascular administration) (converted)
  CL/F: 1330 mL/min/kg
[10]; male, C57BL/6, ip, mouse plasma, read-out: V z/f (volume of distribution after extravascular administration)
  Vd/F: 116 L/kg
[10]; male, C57BL/6, mouse, plasma, ip, 0.3 mg/kg, read-out: t 1/2z (half-life of the terminal slope) (converted)
  half-life: ~1 h
[11]
  brain level: not detected in the brain
